In patent US10457637B2, “Benzenesulfonamide derivatives as inverse agonists of retinoid-related orphan receptor gamma (RORγ(T))” (GALDERMA RESEARCH & DEVELOPMENT, priority 2014, dated 2019) one finds IC50 data, which are given here for nine compounds.

Molecules are shown by their SMILES. pIC50: −log10 of the molar value. Some results are limits rather than exact numbers.

Type in all cases: cell-based
For series [1], the system named is IL-17A secretion by CD4+ cells. As to the kind of experiment: IL-17A secretion by CD4+ cells (HTRF). The conditions noted are these: 96 h; human CD4+ cells activated with anti-CD3 and anti-CD28, 4 days of incubation; read-out: IC50 hCD4/IL17. Here is the method: This model allows measurement of the effect of inhibitors on IL-17A secretion by CD4+ cells. […] The amount of IL-17a secreted is measured by the TR-FRET (kit HTRF® Human Interleukin 17A (Cisbio, #64H17PEC)) technology.
The cells are rapidly thawed, resuspended in their culture medium (RPMI inactivated 10% FCS) supplemented with soluble anti-CD28 antibodies and seeded (100 000 cells/well) in 96-well plates precoated with anti-CD3 antibodies. The cells are then treated with the ranges of inhibitors to be tested (from 1000 nM to 0.05 nM, 0.1% DMSO). […] The IC50 values are calculated from a 4-parameter logistic model using the XLFit software (IDBS).

The next series deals with hERG (Homo sapiens (Human), UniProt Q12809). As to the kind of experiment: hERG test, patch clamp on CHO-K1 cells. The conditions noted are these: CHO-K1 cells transfected with the hERG gene. The text has this: In the table below, the median inhibitory concentrations IC50 for the compounds belonging to formula (I) according to the invention have been given in accordance with the hERG test.
The hERG test makes it possible to study a gene which codes for a protein required for the functioning of heart tissue potassium channels. The patch clamp method on CHO-K1 cells (cells transfected with the hERG gene which has K+ ion activity on the membranes) is used for in vitro prediction of the blocking of hERG (human Ether-a-go-go Related).
The extracellular solution (control) is applied first. The cells (Chinese hamster ovarian cells expressing the Human Ether-a-go-go Related Gene) are stabilized with the extracellular solution for 5 minutes. The cells are incubated for 5 minutes with the molecules from the weakest to the strongest concentration at 0.6% DMSO final.
The result is expressed in the form of an IC50 value in μM.
On the technique in general: The hERG channel carries a current that helps repolarise heart muscle cells.

Series [2] deals with ROR gamma ligand-binding domain (hRORg) (Homo sapiens (Human), UniProt P51449). The experiment in a line: GAL4-RORγ transactivation (luciferase reporter, HG5LN HeLa line). The conditions noted are these: 18 hours incubation. The procedure, abridged:
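HeLa-derived HG5LN cells stably expressing GAL4 DBD fused to human RORγ LBD with GAL4-driven luciferase reporter; inhibition of constitutive activity lowers luminescence.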
(A reporter such as luciferase makes a cellular process visible.)

Chain of hERG (Q12809 whole entry): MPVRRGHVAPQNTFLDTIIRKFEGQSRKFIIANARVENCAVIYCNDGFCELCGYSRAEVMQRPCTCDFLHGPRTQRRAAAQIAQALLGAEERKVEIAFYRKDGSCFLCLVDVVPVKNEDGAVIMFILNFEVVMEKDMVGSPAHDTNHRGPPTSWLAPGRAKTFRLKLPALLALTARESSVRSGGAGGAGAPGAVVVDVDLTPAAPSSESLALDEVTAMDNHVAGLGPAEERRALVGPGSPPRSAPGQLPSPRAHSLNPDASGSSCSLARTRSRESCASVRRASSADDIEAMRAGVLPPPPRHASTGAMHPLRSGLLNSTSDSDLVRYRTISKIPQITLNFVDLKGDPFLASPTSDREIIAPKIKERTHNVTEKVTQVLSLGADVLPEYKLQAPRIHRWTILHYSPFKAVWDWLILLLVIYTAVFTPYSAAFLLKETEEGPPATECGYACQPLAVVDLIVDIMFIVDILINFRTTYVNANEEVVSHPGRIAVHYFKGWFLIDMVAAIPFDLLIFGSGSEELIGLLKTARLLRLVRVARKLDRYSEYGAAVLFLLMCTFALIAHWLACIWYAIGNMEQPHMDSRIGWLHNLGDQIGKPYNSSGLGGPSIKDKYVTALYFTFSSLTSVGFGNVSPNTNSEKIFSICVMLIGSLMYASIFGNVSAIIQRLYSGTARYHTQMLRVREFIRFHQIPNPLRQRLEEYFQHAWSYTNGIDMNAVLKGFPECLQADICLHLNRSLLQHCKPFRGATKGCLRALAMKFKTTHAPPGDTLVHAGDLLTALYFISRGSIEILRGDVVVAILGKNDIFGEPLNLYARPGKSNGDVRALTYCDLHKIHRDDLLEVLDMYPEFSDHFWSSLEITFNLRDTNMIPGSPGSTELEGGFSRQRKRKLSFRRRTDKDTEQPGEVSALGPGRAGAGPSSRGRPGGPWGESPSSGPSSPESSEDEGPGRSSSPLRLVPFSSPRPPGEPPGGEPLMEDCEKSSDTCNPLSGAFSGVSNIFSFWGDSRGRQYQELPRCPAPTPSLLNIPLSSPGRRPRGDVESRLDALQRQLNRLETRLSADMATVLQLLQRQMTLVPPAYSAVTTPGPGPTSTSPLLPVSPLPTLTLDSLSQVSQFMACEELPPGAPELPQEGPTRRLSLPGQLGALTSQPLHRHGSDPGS
Chain of ROR gamma ligand-binding domain (hRORg) (P51449 269-508): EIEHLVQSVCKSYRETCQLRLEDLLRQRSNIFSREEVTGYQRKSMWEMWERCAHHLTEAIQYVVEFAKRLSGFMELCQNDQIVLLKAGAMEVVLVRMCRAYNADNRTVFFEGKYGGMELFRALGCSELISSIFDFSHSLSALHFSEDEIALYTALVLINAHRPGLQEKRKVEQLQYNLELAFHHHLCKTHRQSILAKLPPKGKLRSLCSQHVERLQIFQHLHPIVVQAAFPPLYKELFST

On to `CCc1ccc(N(CC(C)C)S(=O)(=O)c2ccc(OCC3CCOCC3)c(S(C)(=N)=O)c2)cc1` (racemic) [compound 26, N-(4-ethylphenyl)-N-isobutyl-3-methanesulfonoximino-4-(tetrahydropyran-4-ylmethoxy)benzenesulfonamide], for which the pIC50 in series [1] was > 7.00; against hERG, < 4.52.
As for `CCc1ccc(N(CC(C)C)S(=O)(=O)c2ccc(OC[C@H]3[C@@H]4COC[C@@H]43)c(S(C)(=N)=O)c2)cc1` (stereo partly drawn) [compound 35, 4-(((1R,5S,6R)-3-oxabicyclo[3.1.0]hexan-6-yl)methoxy)-N-(4-ethylphenyl)-N-isobutyl-3-(S-methylsulfonimidoyl)benzenesulfonamide], the pIC50 against hERG is < 4.52; in series [2] it was > 7.00.
In the case of `CCc1ccc(N(CC(C)C)S(=O)(=O)c2ccc(NCC3(F)CCOCC3)c(S(C)(=N)=O)c2)cc1` (stereo not drawn) [compound 62, N-(4-ethylphenyl)-4-(((4-fluorotetrahydro-2H-pyran-4-yl)methyl)amino)-N-isobutyl-3-(S-methylsulfonimidoyl)benzenesulfonamide], the values for the pIC50 (in series [1]; against hERG) were > 7.00 and 4.79, respectively.
Consider `CCc1ccc(N(CC(C)C)S(=O)(=O)c2ccc(OCC3CCOCC3)c([S@@](C)(=N)=O)c2)cc1` (single isomer, unassigned) [compound 8, N-(4-ethylphenyl)-N-isobutyl-3-methanesulfoximino-4-(tetrahydropyran-4-ylmethoxy)benzenesulfonamide], for which the pIC50 in series [1] is > 7.00; at hERG it was < 4.52.
Consider `CCc1ccc(N(CC(C)C)S(=O)(=O)c2ccc(NCC3(C)CCOCC3)c(S(C)(=N)=O)c2)cc1` (stereo not drawn) [compound 55, N-(4-ethylphenyl)-N-isobutyl-3-(S-methylsulfonimidoyl)-4-(((4-methyltetrahydro-2H-pyran-4-yl)methyl)amino)benzenesulfonamide], for which the pIC50 is > 7.00 in series [1] and 4.85 at hERG.
As for `CCc1ccc(N(CC(C)C)S(=O)(=O)c2ccc(OCC3CCOCC3)c([S@](C)(=N)=O)c2)cc1` [compound 7, N-(4-ethylphenyl)-N-isobutyl-3-methanesulfoximino-4-(tetrahydropyran-4-ylmethoxy)benzenesulfonamide], the values for the pIC50 (in series [1]; at hERG) were > 7.00 and < 4.52, respectively.
Consider `CCc1ccc(N(CC(C)C)S(=O)(=O)c2ccc(OCC3CCSCC3)c(S(C)(=N)=O)c2)cc1` (stereo not drawn) [compound 37], for which the IC50 (in general, the concentration that gives 50% inhibition) at 5 min at hERG (human) came to 11.8 µM. This counts as double-digit micromolar.
Turning to `CCc1ccc(N(CC(C)C)S(=O)(=O)c2ccc(N(C)CC3CCOCC3)c(S(C)(=N)=O)c2)cc1` (stereo not drawn) [compound 53, N-(4-ethylphenyl)-N-isobutyl-4-(methyl((tetrahydro-2H-pyran-4-yl)methyl)amino)-3-(S-methylsulfonimidoyl)benzenesulfonamide], the results for the pIC50 (in series [1]; against hERG) were > 7.00 and 4.93, respectively.
For the compound `CCc1ccc(N(CC(C)C)S(=O)(=O)c2ccc(NCC3CC(O)C3)c(S(C)(=N)=O)c2)cc1` (stereo not drawn) [compound 61, N-(4-ethylphenyl)-4-(((3-hydroxycyclobutyl)methyl)amino)-N-isobutyl-3-(S-methylsulfonimidoyl)benzenesulfonamide], the pIC50 in series [1] was > 7.00; against hERG it was 4.59; in series [2], > 7.00.
